The values below are quoted from earlier work in EP3623369A1, “NOVEL MORPHOLINYL AMINE COMPOUNDS FOR THE TREATMENT OF AUTOIMMUNE DISEASE” (F. Hoffmann-La Roche AG, priority 2018, dated 2020).

In this series the target is T1, hTLR9 (Homo sapiens, UniProt Q9NR96).
T1 sequence (Q9NR96 26-1032): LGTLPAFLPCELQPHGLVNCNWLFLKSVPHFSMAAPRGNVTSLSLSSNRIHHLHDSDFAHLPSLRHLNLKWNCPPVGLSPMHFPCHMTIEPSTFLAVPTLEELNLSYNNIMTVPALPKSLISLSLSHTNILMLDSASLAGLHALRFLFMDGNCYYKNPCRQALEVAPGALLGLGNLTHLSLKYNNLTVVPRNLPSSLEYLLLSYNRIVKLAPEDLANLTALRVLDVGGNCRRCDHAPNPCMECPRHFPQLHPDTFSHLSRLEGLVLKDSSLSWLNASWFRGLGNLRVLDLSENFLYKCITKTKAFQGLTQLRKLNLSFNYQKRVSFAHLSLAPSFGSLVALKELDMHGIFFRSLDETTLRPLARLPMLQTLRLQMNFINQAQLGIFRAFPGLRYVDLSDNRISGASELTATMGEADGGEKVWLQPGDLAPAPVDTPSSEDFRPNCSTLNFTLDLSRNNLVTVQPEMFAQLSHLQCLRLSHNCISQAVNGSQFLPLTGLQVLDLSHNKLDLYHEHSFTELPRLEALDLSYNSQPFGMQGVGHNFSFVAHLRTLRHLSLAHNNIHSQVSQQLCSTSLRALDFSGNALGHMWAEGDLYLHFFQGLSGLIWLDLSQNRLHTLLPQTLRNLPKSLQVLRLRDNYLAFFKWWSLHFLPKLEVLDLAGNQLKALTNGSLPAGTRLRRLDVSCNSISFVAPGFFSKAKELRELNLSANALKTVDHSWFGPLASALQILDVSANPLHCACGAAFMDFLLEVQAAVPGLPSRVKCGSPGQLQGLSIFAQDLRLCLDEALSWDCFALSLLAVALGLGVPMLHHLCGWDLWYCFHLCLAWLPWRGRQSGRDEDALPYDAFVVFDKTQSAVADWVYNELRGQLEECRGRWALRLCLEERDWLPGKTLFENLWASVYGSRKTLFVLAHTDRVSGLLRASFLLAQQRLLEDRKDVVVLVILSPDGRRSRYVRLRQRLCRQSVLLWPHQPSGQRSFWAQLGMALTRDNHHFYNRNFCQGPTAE
More on the design: host or cells: HEK. Conditions: data disclosed in US20150105370; read-out: HEK/hTLR9 IC50; cited from earlier work.

For `C[C@@H]1CN(c2ccc(C#N)c3ncccc23)C[C@H](CNCc2ccccc2)O1` [ER-886509, reference compound], the IC50 is 3.94 µM.
